Test results taken from publication PMC7955031, “Facile accelerated specific therapeutic (FAST) platform develops antisense therapies to counter multidrug-resistant bacteria” (Communications Biology, 2021).

Assays:
[1] = test system: ESBL KPN; assay: Antibiotic resistance screening (MIC); assay type: cell-based, Klebsiella pneumoniae; settings: for Antibiotic resistance characterization (R/S/I): 24 h
Method: (§1) The clinical isolates were obtained from the lab of Nancy Madinger at the University of Colorado Anschutz campus. Clinical isolates were grown in Cation Adjusted Mueller–Hinton broth (CAMHB) (Becton, Dickinson and Company 212322) at 37 °C with 225 rpm shaking or on solid CAMHB with 1.5% agar at 37 °C. Clinical isolates were maintained as freezer stocks in […], 40% glycerol at −80 °C. Freezer stocks were streaked out onto solid CAMHB and incubated for 16 h to produce single colonies prior to experiments. For each biological replicate, a single colony was picked from solid media and grown for 16 h in liquid CAMHB prior to experiments. Non-clinical isolates, such as E. coli MG1655 (ATCC700926) and Salmonella enterica serovar Typhimurium SL1344, expressing GFP from the chromosome (rpsm::gfp)[54], were cultured in liquid 2% lysogeny broth (LB) or on 2% LB with 1.5% agar for solid plates. SL1344 cultures were supplemented with 30 µg/mL streptomycin and SL1344 strains containing plasmids pFPV (target STm) or pRG1 modified with a lacIq promotor (SL1344-holin) were supplemented with 100 µg/mL ampicillin. Freezer stocks were stored in 60% LB broth, 40% glycerol at −80 °C. Freezer stocks were streaked out onto solid LB and incubated for 16 h to produce single colonies before experiments. For biological replicates, single colonies were started in liquid LB and grown for 16 h prior to experiments. E. coli MG1655 PNA growth experiments were carried out in M9 media (1x M9 minimal media salts solution (MP Biomedicals), 2.0 mM MgSO4, and 0.1 mM CaCl2 in sterile water) with 0.4% glucose.
Sensitive/resistant breakpoints were taken from the 2016–2017 Clinical & Laboratory Standards Institute report[41] (Table S1). Liquid cultures of the clinical strains were diluted to a 0.5 McFarland standard and added to the respective antibiotic test condition. […] Strains were “sensitive” if the MIC was equal to or below the sensitive-breakpoint concentration, “resistant” if the MIC was greater than or equal to the resistant-breakpoint concentration, and “intermediate” if the MIC was in-between.

[2] = test system: CRE E. coli; assay type: cell-based, Escherichia coli; settings: concentration range at which 90% of growth inhibition occurs at 24 hours, Table S2
Method: as §1, with “For biological replicates, single colonies were started in liquid LB and grown for 16 h prior to experiments. E. coli MG1655 PNA growth experiments were carried out in M9 media (1x M9 minimal media salts solution (MP Biomedicals), 2.0 mM MgSO4, and 0.1 mM CaCl2 in sterile water) with 0.4% glucose.” left out

[3] = test system: MDR E. coli; assay type: cell-based, Escherichia coli; settings: concentration range at which 90% of growth inhibition occurs at 24 hours, Table S2
Method: as §1, with “For biological replicates, single colonies were started in liquid LB and grown for 16 h prior to experiments. E. coli MG1655 PNA growth experiments were carried out in M9 media (1x M9 minimal media salts solution (MP Biomedicals), 2.0 mM MgSO4, and 0.1 mM CaCl2 in sterile water) with 0.4% glucose.” left out

[4] = test system: NDM-1 KPN; assay type: cell-based, Klebsiella pneumoniae; settings: concentration range at which 90% of growth inhibition occurs at 24 hours, Table S2
Method: as §1, with “For biological replicates, single colonies were started in liquid LB and grown for 16 h prior to experiments. E. coli MG1655 PNA growth experiments were carried out in M9 media (1x M9 minimal media salts solution (MP Biomedicals), 2.0 mM MgSO4, and 0.1 mM CaCl2 in sterile water) with 0.4% glucose.” left out

[5] = test system: MDR STm; assay type: cell-based, Salmonella enterica serovar Typhimurium; settings: concentration range at which 90% of growth inhibition occurs at 24 hours, Table S2
Method: as §1, with “For biological replicates, single colonies were started in liquid LB and grown for 16 h prior to experiments. E. coli MG1655 PNA growth experiments were carried out in M9 media (1x M9 minimal media salts solution (MP Biomedicals), 2.0 mM MgSO4, and 0.1 mM CaCl2 in sterile water) with 0.4% glucose.” left out

O=C(N[C@H](CO)[C@H](O)c1ccc([N+](=O)[O-])cc1)C(Cl)Cl [CHL, chloramphenicol] was tested, and the “Antibiotic resistance characterization (R/S/I)” value [1] was “S”.
For CCn1cc(C(=O)O)c(=O)c2ccc(C)nc21 [NXA, nalidixic acid], the “Antibiotic resistance characterization (R/S/I)” value [1] was “R”.
CC1(C)S[C@@H]2[C@H](NC(=O)[C@H](N)c3ccccc3)C(=O)N2[C@H]1C(=O)O [AMP, ampicillin] was tested, and the “Antibiotic resistance characterization (R/S/I)” value [1] was “R”.
With NC[C@H]1O[C@H](O[C@H]2[C@H](O)[C@@H](O[C@H]3O[C@H](CO)[C@@H](O)[C@H](N)[C@H]3O)[C@H](N)C[C@@H]2N)[C@H](O)[C@@H](O)[C@@H]1O [KAN, kanamycin] the “Antibiotic MIC90” value [2] was > 64 µg/mL, the “Antibiotic MIC90” value [3] was < 16 µg/mL and the “Antibiotic MIC90” value ([1]; ESBL KPN, concentration range at which 90% of growth inhibition occurs at 24 hours, Table S2) was > 64 µg/mL. For the same compound, the “Antibiotic MIC90” value [4] was > 64 µg/mL and the “Antibiotic MIC90” value [5] was < 16 µg/mL.
